Tested on: peritoneal macrophages
Experiment: In vitro mammalian toxicity, MTT method
Type: cell-based, BALB/c mice
Conditions: CC50 against macrophages/IC50 against amastigotes

## C=CCc1ccc(Oc2cc([C@H](O)C=C)cc(OC)c2O)c(OC)c1 [Compound 3, 1-[(7R)-Hydroxy-8-propenyl]-3-[3′-methoxy-1′-(8′-propenyl)-phenoxy]-4-hydroxy-5-methoxybenzene]
  SI selectivity index (CC50 mammalian cells/IC50 Leishmania amastigotes): >2.9
